Consider two substances from patent EP0986568B1, “NOVEL CLASS OF NUCLEIC ACID CATIONIC TRANSFECTING AGENTS” (Aventis Pharma S.A., priority 1997, dated 1998).

This assay concerns ADN. Briefly: Association with DNA, ethidium bromide fluorescence. Format: binding. Particulars: 6 nmoles d'agent transfectant/µg d'ADN, 5 µg bromure d'éthidium/ml; for fluorescence dans le chlorure de sodium NaCl à 300 mM: NaCl 300 mM; for fluorescence dans l'eau: in water. The text has this: • Les purifications sur HPLC (High Performance Liquid Chromatography) ont été effectuées avec un appareil Waters LC 4000, sur une colonne Vydac C4 éluée par un gradient d'acétonitrile dans l'eau. • Les mesures de fluorescence ont été réalisées sur Perkin Elmer LS50B, en utilisant des longueurs d'onde d'excitation et d'émission respectivement de 260 nm et 590 nm. Les largeurs de fentes pour l'excitation et l'émission sont réglées à 5 nm. La valeur de fluorescence est enregistrée après ajout de 5 µg de bromure d'éthidium/ml en concentration finale. • Les spectres de résonance magnétique nucléaire (RMN) ont été enregistrés, à 300,13 MHz pour le proton ou à 75,47 MHz pour le carbone, sur un appareil Bruker MSL 300 dans le chloroforme deutérié.
Les agents transfectants selon l'invention ont été mis en solution dans l'eau à 10 mM. Les solutions ainsi obtenues sont transparentes et correspondent à une organisation sous forme de micelles de lipide cationique.
Les complexes agent tranfectant/ADN ont été réalisés suivant un rapport de 6 nmoles d'agent transfectant/µg d'ADN.

In the case of “méthyl-dioctadécylamido-succinyl-6-tri-O-(amino-2'-éthyl)-2,3,4-β-D-galactopyranoside [8(a)]”, the “fluorescence dans le chlorure de sodium NaCl à 300 mM” value was 55% and the “fluorescence dans l'eau” value is 6%.

For the substance “méthyl-dioctadécylamido-phtalyl-6-tri-O-(amino-2'-éthyl)-2,3,4-β-D-galactopyranoside [8(b)]”, the “fluorescence dans le chlorure de sodium NaCl à 300 mM” value is listed as 60% and the “fluorescence dans l'eau” value was 7%.
